Laboratory results reported in publication PMC5601486, “Identification of 4-phenylquinolin-2(1H)-one as a specific allosteric inhibitor of Akt” (Scientific Reports, 2017).
Where “and” joins values, the source holds several entries; their conditions need not be identical. Identical values can stand only once.

What was measured:
Akt = target: T1, Akt (Mus musculus, UniProt P31750); test: Akt activity assay (immunoprecipitated Akt, K-Lisa); assay type: cell-based
T1 construct: subjected to immunoprecipitation using protein G-plus and anti-AKT PH domain (Millipore); endogenous in cells; host or cells: Neuro 2A (mouse neuroblastoma), IGF-stimulated
T1 sequence (P31750 whole entry, the tested form may be a part): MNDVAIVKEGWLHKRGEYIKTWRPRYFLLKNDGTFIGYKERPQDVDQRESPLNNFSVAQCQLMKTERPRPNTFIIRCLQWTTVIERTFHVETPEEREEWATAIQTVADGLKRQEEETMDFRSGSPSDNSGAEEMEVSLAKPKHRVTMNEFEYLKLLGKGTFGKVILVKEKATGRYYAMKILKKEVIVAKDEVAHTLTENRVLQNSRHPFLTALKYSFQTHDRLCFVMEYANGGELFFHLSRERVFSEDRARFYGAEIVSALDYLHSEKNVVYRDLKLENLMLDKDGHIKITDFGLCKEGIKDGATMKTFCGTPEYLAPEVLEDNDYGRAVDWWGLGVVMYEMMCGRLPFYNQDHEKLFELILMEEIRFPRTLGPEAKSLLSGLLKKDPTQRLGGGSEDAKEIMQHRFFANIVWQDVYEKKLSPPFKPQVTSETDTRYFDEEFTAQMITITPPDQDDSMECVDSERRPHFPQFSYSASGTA
Description: After overnight starvation by incubating with serum-free DMEM, Neuro 2A cells were treated with compound G7 at various concentrations for 30 min at room temperature followed by stimulation with IGF (final concentration of 100 ng/mL) for 30 min. Cells were lysed with lysis buffer containing 1% Triton X-100 and protease/phosphatase inhibitors (Cell Signaling Technology) and subjected to immunoprecipitation using protein G-plus and anti-AKT PH domain (Millipore). The activity of the immunopurified Akt was evaluated using a K-Lisa Akt activity kit (Millipore) in accordance with manufacturer’s instructions. The activity was normalized to Akt level in the immunoprecipitates determined by quantitative western blot analysis.

PDK1 = tested on: T2, PDK1; test: ADP-Glo kinase assay; assay type: biochemical; conditions: 50 µM
T2 construct: purchased Promega V2761
Description: Elisa Assay for phosphorylation of Akt
Neuro 2A cells in 48-well plates were incubated with the inhibitor for 30 minutes at 37°C followed by IGF stimulation for 30 min. Cells were lysed and subjected to Elisa assay using an Akt (S473) InstantOne Elisa kit (ThermoFisher Scientific, # 8586042-11) in accordance with manufacturer ’s instruction.
An ADP-GloTM kinase assay kit (Promega, # V9101) was used to measure the activity of PDK1 or SGK1 in accordance with the manufacturer’s instructions. For PDK1 assay, the reaction mixture included 5 µM ATP, 50 µM inhibitor, 100 ng recombinant PDK1 and 2 µg PDKtide substrate (Promega, #V2761) prior to the addition of the ADP-Glo reagents. For SGK1, 5 µM ATP, 50 µM inhibitor, 10 ng SGK1 and 1 µg Akt substrate peptide (Promega, #V2911) were used. Staurosporine at concentration between 0.4 and 4,000 nM or the SGK1 inhibitor GSK-650394 (Tocris Bioscience) between 7 and 2,000 nM were used as controls for PDK1 or SGK1 assay respectively. For PI3K assay, 50 µM ATP, 50 µM inhibitor, 100 ng recombinant PI3 kinase (SignalChem, Richmond, Canada, # P27-10H-05) and 1.5 mg/mL multilamellar phospholipid vesicles containing PC/PE/PS/PIP2 (at mass ratio of 1/0.5/0.2/0.1) were used. Inhibitor blanks as well as LY-294002 between 78 and […]

EGFR(G719S) = test: KINOMEscan; conditions: 50000 nM
Description: KINOMEscan™ selectivity screen
(§1) The assay was perfor med at DiscoveRx Corporation according the methods published previously5. Briefly, Kinase-tagged T7 phage strains were grown in parallel in an E. coli host derived from the BL21 strain. E. coli were grown to log-phase and infected with T7 phage from a frozen stock and incubated with shaking at 32°C until lysis (90-150 minutes). The kinases were produced in HEK-293 cells and subsequently tagged with DNA for qPCR detection. Streptavidin-coated magnetic beads were treated with biotinylated small molecule ligands to generate affinity resins for kinase
(§2) inhibitor or DMSO control was performed in polypropylene 384-well plates for 1 hr at room temperature. After wash with PBS buffer containing 0.05% Tween 20, the beads were incubated in elution buffer (PBS containing 0.05 % Tween 20 and 0.5 μM non-biotinylated affinity ligand) for 30 minutes at room temperature. The kinase concentration in the eluates was measured by qPCR.

MAP4K5 = test: KINOMEscan; conditions: 50000 nM
Description: KINOMEscan™ selectivity screen
as §1, §2

TAOK3 = test: KINOMEscan; conditions: 50000 nM
Description: KINOMEscan™ selectivity screen
as §1, §2

WEE1 = test: KINOMEscan; conditions: 50000 nM
Description: KINOMEscan™ selectivity screen
as §1, §2

YANK1 = test: KINOMEscan; conditions: 50000 nM
Description: KINOMEscan™ selectivity screen
(§3) Briefly, Kinase-tagged T7 phage strains were grown in parallel in an E. coli host derived from the BL21 strain. E. coli were grown to log-phase and infected with T7 phage from a frozen stock and incubated with shaking at 32°C until lysis (90-150 minutes). The kinases were produced in HEK-293 cells and subsequently tagged with DNA for qPCR detection. Streptavidin-coated magnetic beads were treated with biotinylated small molecule ligands to generate affinity resins for kinase
as §2

ROS1 = test: KINOMEscan; conditions: 50000 nM
Description: KINOMEscan™ selectivity screen
as §1, §2

ADCK4 = test: KINOMEscan; conditions: 50000 nM
Description: KINOMEscan™ selectivity screen
as §1, §2

PCTK3 = test: KINOMEscan; conditions: 50000 nM
Description: KINOMEscan™ selectivity screen
as §1, §2

NEK4 = test: KINOMEscan; conditions: 50000 nM
Description: KINOMEscan™ selectivity screen
as §1, §2

SYK = test: KINOMEscan; conditions: 50000 nM
Description: KINOMEscan™ selectivity screen
as §1, §2

NEK6 = test: KINOMEscan; conditions: 50000 nM
Description: KINOMEscan™ selectivity screen
as §1, §2

CASK = test: KINOMEscan; conditions: 50000 nM
Description: KINOMEscan™ selectivity screen
as §3, §2

FRK = test: KINOMEscan; conditions: 50000 nM
Description: KINOMEscan™ selectivity screen
as §1, §2

TLK2 = test: KINOMEscan; conditions: 50000 nM
Description: KINOMEscan™ selectivity screen
as §3, §2

CDK3 = test: KINOMEscan; conditions: 50000 nM
Description: KINOMEscan™ selectivity screen
as §3, §2

FGR = test: KINOMEscan; conditions: 50000 nM
Description: KINOMEscan™ selectivity screen
as §1, §2

FER = test: KINOMEscan; conditions: 50000 nM
Description: as §3, §2

KIT(D816H) = test: KINOMEscan; conditions: 50000 nM
Description: as §3, §2

PAK4 = test: KINOMEscan; conditions: 50000 nM
Description: as §3, §2

BRSK2 = test: KINOMEscan; conditions: 50000 nM
Description: KINOMEscan™ selectivity screen
as §1, §2

LCK = test: KINOMEscan; conditions: 50000 nM
Description: KINOMEscan™ selectivity screen
as §1, §2

PLK4 = test: KINOMEscan; conditions: 50000 nM
Description: KINOMEscan™ selectivity screen
as §1, §2

IGF1R = test: KINOMEscan; conditions: 50000 nM
Description: KINOMEscan™ selectivity screen
The assay was perfor med at DiscoveRx Corporation according the methods published previously5. […] The kinases were produced in HEK-293 cells and subsequently tagged with DNA for qPCR detection. Streptavidin-coated magnetic beads were treated with biotinylated small molecule ligands to generate affinity resins for kinase
as §2

PIKFYVE = test: KINOMEscan; conditions: 50000 nM
Description: KINOMEscan™ selectivity screen
as §3, §2

ANKK1 = test: KINOMEscan; conditions: 50000 nM
Description: KINOMEscan™ selectivity screen
as §1, §2

BRAF(V600E) = test: KINOMEscan; conditions: 50000 nM
Description: KINOMEscan™ selectivity screen
as §1, §2

MAP3K1 = test: KINOMEscan; conditions: 50000 nM
Description: KINOMEscan™ selectivity screen
as §3, §2

PRKG1 = test: KINOMEscan; conditions: 50000 nM
Description: KINOMEscan™ selectivity screen
as §1, §2

CLK2 = test: KINOMEscan; conditions: 50000 nM
Description: KINOMEscan™ selectivity screen
as §1, §2

TNIK = test: KINOMEscan; conditions: 50000 nM
Description: KINOMEscan™ selectivity screen
as §3, §2

ARK5 = test: KINOMEscan; conditions: 50000 nM
Description: KINOMEscan™ selectivity screen
as §3, §2

[1] = tested on: ABL1(Q252H)-nonphosphorylated; test: KINOMEscan; conditions: 50000 nM
Description: KINOMEscan™ selectivity screen
as §1, §2

MERTK = test: KINOMEscan; conditions: 50000 nM
Description: KINOMEscan™ selectivity screen
as §1, §2

[2] = tested on: RSK4(Kin.Dom.2-C-terminal); test: KINOMEscan; conditions: 50000 nM
Description: KINOMEscan™ selectivity screen
as §1, §2

FLT3(N841I) = test: KINOMEscan; conditions: 50000 nM
Description: KINOMEscan™ selectivity screen
as §3, §2

With Oc1cc(-c2ccccc2)c2ccccc2n1 [G7, 4-phenylquinolin-2(1H)-one] the “decrease of Akt activity” value (Akt; G7 at 50 µM) was ~ 80%, the IC50 (Akt; IGF-stimulated Neuro 2A cells, Akt immunoprecipitated, read-out: IC50 on Akt enzymatic activity) was 6 µM and 6.2 µM and the “effect on PDK1 activity” value (PDK1) was “no effects”. For the same compound, the “Percent Control” value (EGFR(G719S)) was 100%, the “Percent Control” value (MAP4K5) was 100% and the “Percent Control” value (TAOK3) was 100%. The “Percent Control” value (WEE1) was 100%, the “Percent Control” value (YANK1) was 100% and the “Percent Control” value (ROS1) was 98%. For the same compound, the “Percent Control” value (ADCK4) was 96%, the “Percent Control” value (PCTK3) was 96% and the “Percent Control” value (NEK4) was 95%. The “Percent Control” value (SYK) was 95%, the “Percent Control” value (NEK6) was 92% and the “Percent Control” value (CASK) was 89%. For the same compound, the “Percent Control” value (FRK) was 89%, the “Percent Control” value (TLK2) was 89% and the “Percent Control” value (CDK3) was 88%. For the same compound, the “Percent Control” value (FGR) was 88%, the “Percent Control” value (FER) was 84% and the “Percent Control” value (KIT(D816H)) was 84%. For the same compound, the “Percent Control” value (PAK4) was 84%, the “Percent Control” value (BRSK2) was 82% and the “Percent Control” value (LCK) was 80%. For the same compound, the “Percent Control” value (PLK4) was 80%, the “Percent Control” value (IGF1R) was 76% and the “Percent Control” value (PIKFYVE) was 74%. For the same compound, the “Percent Control” value (ANKK1) was 73%, the “Percent Control” value (BRAF(V600E)) was 71% and the “Percent Control” value (MAP3K1) was 71%. For the same compound, the “Percent Control” value (PRKG1) was 70%, the “Percent Control” value (CLK2) was 64% and the “Percent Control” value (TNIK) was 60%. For the same compound, the “Percent Control” value (ARK5) was 59%, the “Percent Control” value [1] was 46% and the “Percent Control” value (MERTK) was 42%. The “Percent Control” value [2] was 38% and the “Percent Control” value (FLT3(N841I)) was 30%.
